Consider 21 compounds from ChEMBL document CHEMBL1681657, “P3 optimization of functional potency, in vivo efficacy and oral bioavailability in 3-aminopyrazinone thrombin inhibitors bearing non-charged groups at the P1 position” (Bioorg Med Chem Lett, 2011).

Activity calls are given as the source filed them. No cut-off for these calls is given here.

One may read the Ki as a dissociation constant, usually derived from enzyme kinetics or from competition with a known ligand. The low end stands for tighter binding, the high end for weaker binding. What is called half-life is how long it takes for the measured level to halve. As usually defined, the Cmax is the maximum level reached in the sampled fluid or tissue. In general, fraction unbound refers to free concentration divided by total concentration.

The nature of series [1]: Anticoagulant activity in human […] assessed as concentration required to double activated partial […] time. The format is functional.
In another series the target is Prothrombin (Homo sapiens, UniProt P00734). Nature of the series: Inhibition of thrombin.
Series [2] is described as follows: Inhibition of trypsin.
Series [3] is described as follows: Half life in rat at 10 mg/kg, po. The series is classed as ADME, organism-based. The arrangement: dose 10 mg/kg, route oral. Particulars: in vivo.
The nature of series [4]: Cmax in dog at 1 mg/kg, po. The format is ADME, organism-based, Canis lupus familiaris. Set-up: dose 1 mg/kg, route oral. To be noted: in vivo.
The nature of series [5]: Cmax in rat at 10 mg/kg, po. The format is ADME, organism-based. Set-up: dose 10 mg/kg, route oral. To be noted: in vivo.
A short description of series [6]: Half life in dog at 1 mg/kg, po. The format is ADME, organism-based, Canis lupus familiaris. Set-up: dose 1 mg/kg, route oral. To be noted: in vivo.
The nature of series [7]: Fraction unbound in human plasma. The series is classed as ADME, cell-free.
The subject of another series is Rattus norvegicus. Kind of series: Anticoagulant activity in iv dosed ferric chloride-induced thrombosis rat model assessed as protection against thrombotic occlusion. The series is classed as functional, organism-based.

On to `Cc1cnc(NCCc2ccccn2)c(=O)n1CC(=O)NCc1cc(Cl)ccc1Cl`, for which the Activity in series [1] stood at 0.98 µM. The values for the Ki (on Prothrombin; in [2]) were 0.75 nM and 52 µM, respectively.

Regarding `Cc1cnc(NCCc2ccccn2)c(=O)n1CC(=O)NCc1cccc(Cl)c1`, the half-life turned out to be 1 h in [3] and 0.867 h in [6]. Also, the results for the Cmax in series [4] and in series [5] were 2820 nM and 2980 nM, respectively. For the same compound, the Activity in series [1] stood at 1.01 µM. In addition, the Ki amounted to 3 nM on Prothrombin and 37 µM in [2]. In series [7], this compound came in with a fraction unbound of 0.06.

`COc1ccc(C#N)c(CNC(=O)Cn2c(Cl)cnc(NCCc3cccc[n+]3[O-])c2=O)c1`: the Activity in series [1] came to 0.41 µM. The Ki at Prothrombin was 1.1 nM; in [2] it was 278 µM.

Regarding `COc1ccc(C#N)c(CNC(=O)Cn2c(C)cnc(NCCc3ccccn3)c2=O)c1`, the half-life amounted to 2.08 h in series [3] and 1.47 h in series [6]. In addition, the Cmax in series [4] is 2260 nM; in series [5], 2280 nM. The Activity in series [1] came to 0.72 µM. The results for the Ki (on Prothrombin; in series [2]) were 1.6 nM and over 1000 µM, respectively.

Consider `Cc1cnc(NCCc2ccccn2)c(=O)n1CC(=O)NCc1cc(Cl)ccc1OCC(=O)NC1CC1`, for which the Activity in series [1] amounted to 0.45 µM. For the same compound, on Prothrombin, the Ki was determined as 0.015 nM. The compound also showed a fraction unbound in series [7] of 0.01.

For the compound `Cc1cnc(NCCc2ccccn2)c(=O)n1CC(=O)NCc1cc(Cl)ccc1OCC(=O)NC1CCCNC1` (centres undefined), the Activity in series [1] amounted to 0.24 µM. On Prothrombin, this compound yielded a Ki of 0.125 nM. The result in the series with Rattus norvegicus was Active. Also, the unbound share (fraction unbound) in [7] was 0.12.

Take `COc1ccc(Cl)cc1CNC(=O)Cn1c(Cl)cnc(NCCc2cccc[n+]2[O-])c1=O`: the Activity in [1] was determined as 0.67 µM. Moreover, the Ki at Prothrombin was 1.8 nM; in series [2], 64 µM.

For `COc1ccc(C#N)c(CNC(=O)Cn2c(C)cnc(NCCC3CCCCN3)c2=O)c1` (racemic), in series [1], the Activity amounted to 0.27 µM. Also, the Ki worked out at 1.8 nM at Prothrombin and 136 µM in series [2]. The result in the series on Rattus norvegicus was Active.

Turning to `O=C(Cn1c(Cl)cnc(NCCc2cccc[n+]2[O-])c1=O)NCc1cc(Cl)ccc1Cl`, the Activity in series [1] was found to be 0.65 µM. Further, the Ki at Prothrombin is 0.76 nM; in [2], 138 µM.

Turning to `COc1ccc(Cl)cc1CNC(=O)Cn1c(C)cnc(NCCc2ccccn2)c1=O`, the values for the half-life in series [3] and in series [6] were 3.73 h and 1 h, respectively. The Cmax amounted to 1480 nM in series [4] and 570 nM in series [5]. For the same compound, the Activity in [1] was found to be 1.05 µM. Further, the Ki at Prothrombin worked out at 2 nM; in [2] it was 161 µM.

In series [4], `Cc1ccc(C#N)c(CNC(=O)Cn2c(C)cnc(NCCc3ccccn3)c2=O)c1` displayed a Cmax of 2300 nM. In addition, the half-life in [6] amounted to 0.85 h. Further, the Activity in series [1] stood at 0.56 µM. Moreover, the Ki came out at 1.3 nM on Prothrombin and 102 µM in series [2].

As to `COc1ccc(C)cc1CNC(=O)Cn1c(C)cnc(NCCc2ccccn2)c1=O`, in series [1], the Activity came out at 2.9 µM. For the same compound, the results for the inhibition constant (Ki) (on Prothrombin; in series [2]) were 8 nM and 902 µM, respectively.

With `COc1ccc(Cl)cc1CNC(=O)Cn1c(C)cnc(NCCC2CCCCN2)c1=O` (racemic), in series [1], the Activity was determined as 0.65 µM. In addition, the Ki was determined as 4.8 nM at Prothrombin and 58.9 µM in series [2]. The result in the series on Rattus norvegicus was Active.

For the compound `Cc1ccc(OCC(F)(F)F)c(CNC(=O)Cn2c(C)cnc(NCCc3ccccn3)c2=O)c1`, the Activity in series [1] came to 0.89 µM. Moreover, the inhibition constant Ki is 1.5 nM on Prothrombin and 91 µM in [2].

Regarding `COc1ccc(C#N)c(CNC(=O)Cn2c(Cl)cnc(NCCc3ccccn3)c2=O)c1`, the Activity in series [1] came out at 0.83 µM. Moreover, the inhibition constant (Ki) at Prothrombin is 1.5 nM; in [2] it was over 100 µM.

Consider `Cc1ccc(Cl)cc1CNC(=O)Cn1c(Cl)cnc(NCCc2cccc[n+]2[O-])c1=O`, for which the Activity in series [1] worked out at 0.69 µM. Also, the Ki at Prothrombin amounted to 1.1 nM; in series [2], 94 µM.

`Cc1ccc(Cl)cc1CNC(=O)Cn1c(C)cnc(NCCC2CCCCN2)c1=O` (racemic): the Activity in [1] was determined as 0.44 µM. Besides, the Ki on Prothrombin is 2.3 nM; in series [2], 38 µM. Also, the outcome in the series with Rattus norvegicus was Active.

Regarding `O=C(Cn1c(Cl)cnc(NCCc2cccc[n+]2[O-])c1=O)NCc1cc(Cl)ccc1OCC(F)(F)F`, the Activity in series [1] came to 0.6 µM. In addition, the Ki at Prothrombin was 0.31 nM; in [2] it was 17 µM.

Consider `Cc1cnc(NCCc2ccccn2)c(=O)n1CC(=O)NCc1cc(Cl)ccc1OCC(F)(F)F`, for which the half-life in series [3] was determined as 1.95 h; in series [6] it was 1.3 h. Also, the Cmax in [4] is 3240 nM; in series [5], 1060 nM. In addition, the Activity in series [1] is 0.79 µM. In addition, the Ki at Prothrombin came to 0.5 nM; in series [2], 32 µM.

`Cc1ccc(Cl)cc1CNC(=O)Cn1c(C)cnc(NCCc2ccccn2)c1=O`: the half-life in [3] was 3.67 h; in [6], 1.18 h. The highest concentration (Cmax) in series [4] worked out at 2520 nM; in series [5] it was 1290 nM. Moreover, the Activity in [1] is 0.87 µM. In addition, the Ki on Prothrombin is 1.1 nM; in series [2], over 50 µM.

As to `NC(C(=O)N1CCC[C@H]1C(=O)NCc1cc(Cl)ccc1OCC(=O)NC1CC1)C1CCCCC1` (single isomer, unassigned), in series [1], the Activity was determined as 0.42 µM. This compound came in with a fraction unbound in series [7] of 0.12.
